Assay: in vivo
Settings: male, CD-1, mouse, iv
Method: Male CD-1 mice ranging from 20-25 g body weight were split up into groups of three. Each mouse was administered with a single dose of CPT319A or CPT307A at 5 mg/kg DXR by intravenous (IV) injection through the tail vein. A non-liposomal combination of DXR was used as the control. Blood samples were collected at 0.167, 1, 3, 8, 24, and 48 h after the injection. DXR plasma concentration was determined by liquid chromatography-tandem mass spectrometry (LC-MS-MS).

COc1cccc2c1C(=O)c1c(O)c3c(c(O)c1C2=O)C[C@@](O)(C(=O)CO)C[C@@H]3O[C@H]1C[C@H](N)[C@H](O)[C@H](C)O1 [Naked DXR, doxorubicin]
AUC: 688 ng·h/mL | AUC (5 mg/kg): 688 ng·h/mL

— US10561611B2, “Combination liposomal pharmaceutical formulations” (Cureport, Inc., priority 2015, dated 2020)
